Data reported in patent US12673947B2 (Cytosinlab Therapeutics Co., Ltd., priority 2020, dated 2026).
pIC50: −log10 of the molar value.

Legend:
FLT3 = biological target: T1, FLT3 (Homo sapiens, UniProt P36888); assay: FLT3 kinase in vitro inhibitory activity experiment (Caliper mobility shift, conversion rate); assay type: biochemical; conditions: IC50 class, read-out: Enzyme activity FLT3
T1 construct: purchased Carna 08-145
T1 sequence (P36888 27-993): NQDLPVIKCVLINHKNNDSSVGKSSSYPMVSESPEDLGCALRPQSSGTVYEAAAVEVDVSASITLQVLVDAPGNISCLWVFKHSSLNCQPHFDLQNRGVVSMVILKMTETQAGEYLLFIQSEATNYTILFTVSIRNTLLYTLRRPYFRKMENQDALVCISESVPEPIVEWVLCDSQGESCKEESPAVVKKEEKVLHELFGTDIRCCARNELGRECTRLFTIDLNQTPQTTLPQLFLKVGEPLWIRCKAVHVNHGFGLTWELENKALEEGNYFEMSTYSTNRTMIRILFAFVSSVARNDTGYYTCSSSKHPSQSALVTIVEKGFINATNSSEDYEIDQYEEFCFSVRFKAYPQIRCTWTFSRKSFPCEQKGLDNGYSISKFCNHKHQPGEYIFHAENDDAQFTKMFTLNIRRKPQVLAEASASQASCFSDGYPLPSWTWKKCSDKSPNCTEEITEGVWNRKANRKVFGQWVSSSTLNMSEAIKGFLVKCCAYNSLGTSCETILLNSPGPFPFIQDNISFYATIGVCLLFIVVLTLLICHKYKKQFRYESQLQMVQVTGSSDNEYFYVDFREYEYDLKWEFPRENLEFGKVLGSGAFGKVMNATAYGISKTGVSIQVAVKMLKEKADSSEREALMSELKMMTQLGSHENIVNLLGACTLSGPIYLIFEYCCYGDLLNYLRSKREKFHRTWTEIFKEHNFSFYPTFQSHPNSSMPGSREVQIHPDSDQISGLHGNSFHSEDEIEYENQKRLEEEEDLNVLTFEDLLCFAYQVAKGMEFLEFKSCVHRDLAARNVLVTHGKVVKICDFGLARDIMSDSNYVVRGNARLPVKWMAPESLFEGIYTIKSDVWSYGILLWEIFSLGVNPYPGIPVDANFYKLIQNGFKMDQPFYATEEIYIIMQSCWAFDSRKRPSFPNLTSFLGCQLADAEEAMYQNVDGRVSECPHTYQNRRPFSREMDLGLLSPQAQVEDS
In short: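 FLT3 was pre-incubated with compound for 10 min at room temperature, then the reaction was started with ATP plus Kinase substrate 2 and run 30 min at room temperature before stop solution. Substrate conversion was read by Caliper mobility shift.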

MV4;11 cells = assay: MV4;11 in vitro inhibition of proliferation assay (CellTiter-Glo, 72 hours); assay type: cell-based; conditions: Homo sapiens, MV4-11, 72 h, IC50 class, read-out: Inhibitory activity of cell proliferation MV4;11
From the text: Biological Test Example 2: MV4;11 In Vitro Inhibition of Proliferation Assay
The MV4;11 cell lines were purchased from the cell bank of the Chinese Academy of Sciences, IMDM medium (Gibco, catalog number 12440), fetal bovine serum (Gibco, catalog number 10099141C), penicillin-streptomycin antibiotics (Gibco, catalog number 15140122), DMSO (Sigma, catalog number D2650), Celltiter-Glo kit (CTG) (Promega, catalog number G7573), 384-well clear flat-bottom black cell culture plate (Corning, catalog number 3764), D300e digital dispenser (Tecan, catalog number D300e), SpectraMax i3x microplate reader (MOLECULAR DEVICES, catalog number i3x)
MV4;11 cell was cultivated in IMDM, 10% fetal bovine serum, 1% penicillin-streptomycin antibiotics, and cell density was kept less than 1.0*10E6 cells per ml to ensure that it was always in logarithmic growth phase. Cell viability was greater than 95%.
The compounds to be tested was diluted by 3 times from 10 uM with DMSO to 9 concentrations. 60 nl diluted compound was added to the cell culture plate and three duplicates were set up.
The prepared MV4;11 cell suspension was added to the 384-well plate, and 20 microliters of cell suspension was added per well, i.e., each well contained 2000 MV4;11 cells, of which the final concentration of DMSO was 0.3%. The cell culture plate was placed in 37° C. and incubated in a 5% carbon dioxide incubator for 72 hours.
20 μL of Promega CellTiter-Glo reagent was added to per well, and the plate was incubated at room temperature for 10 minutes when the luminescence signals were stable. SpectraMax i3x microplate reader was used to read signals.
The original data was converted into inhibition rate, and the IC50 value (half inhibition concentration) of the compound was determined by fitting the nonlinear four-parameter curve.

| Structure (SMILES) | pIC50 (FLT3) | pIC50 (MV4;11 cells) |
| --- | --- | --- |
| CCc1nc2c(N)ncc(-c3cnn(C4CCN(C5CCN(C)CC5)CC4)c3)c2nc1NC1CCOCC1 [Compound 135] | ≥ 8.00 | 7.00 to 8.00 |
| CCc1nc2c(N)ncc(-c3ccc(N4CCOCC4)c(OC)c3)c2nc1NC1CCOCC1 [Compound 38] | ≥ 8.00 | 7.00 to 8.00 |
| CCc1nc2c(N)ncc(-c3cnn(C4CCN(C5CCOCC5)CC4)c3)c2nc1NC1CCOCC1 [Compound 237] | ≥ 8.00 | 7.00 to 8.00 |
| CCc1nc2c(N)ncc(-c3cnn(C4CCN(C(C)CC)CC4)c3)c2nc1N[C@@H]1CC[C@H](O)C1 (stereo partly shown) [Compound 183] | ≥ 8.00 | ≥ 8.00 |
| CCc1nc2c(N)ncc(-c3cnn(C4CCN(C5CCN(CC)CC5)CC4)c3)c2nc1N[C@H]1CCOC1 [Compound 244] | ≥ 8.00 | 7.00 to 8.00 |
| CCc1nc2c(N)ncc(-c3cnn(-c4ncc(C#N)cn4)c3)c2nc1NC1CCOCC1 [Compound 346] | ≥ 8.00 | 7.00 to 8.00 |
| [2H]C([2H])([2H])C(N1CCC(n2cc(-c3cnc(N)c4nc(CC)c(N[C@@H]5CC[C@H](O)C5)nc34)cn2)CC1)C([2H])([2H])[2H] [Compound 221] | ≥ 8.00 | ≥ 8.00 |
| CCc1nc2c(N)ncc(-c3ccc(N4CCC(N5CCN(C)CC5)CC4)c(F)c3)c2nc1NC1CCOCC1 [Compound 14] | ≥ 8.00 | 7.00 to 8.00 |
| CCc1nc2c(N)ncc(-c3cnn(C4CCN(c5cccnc5)CC4)c3)c2nc1N[C@@H]1CC[C@H](O)C1 [Compound 170] | ≥ 8.00 | ≥ 8.00 |
| CCc1nc2c(N)ncc(-c3cnn(-c4ccc5c(c4)CCO5)c3)c2nc1N[C@@H]1CC[C@H](O)C1 [Compound 357] | ≥ 8.00 | ≥ 8.00 |
| CCc1nc2c(N)ncc(-c3cnn(-c4ccnc(CO)c4)c3)c2nc1N[C@@H]1CC[C@H](O)C1 [Compound 318] | ≥ 8.00 | ≥ 8.00 |
| CCc1nc2c(N)ncc(-c3cnn(C4CCN(C5CCN(CC)CC5)CC4)c3)c2nc1NC1CCCC(O)C1 (stereo not shown) [Compound 246, 3-((5-amino-3-ethyl-8-(1-(1′-ethyl-[1,4′-bipiperidine]-4-yl)-1H-pyrazol-4-yl)pyridino[3,4-b]pyrazine-2-yl)amino)cyclohexan-1-ol] | ≥ 8.00 | ≥ 8.00 |
| CCc1nc2c(N)ncc(-c3cnn(-c4ncc(OC(C)C)cn4)c3)c2nc1N[C@@H]1CC[C@H](O)C1 [Compound 344] | ≥ 8.00 | ≥ 8.00 |
| CCc1nc2c(N)ncc(-c3cnn(C(C)C)c3)c2nc1N[C@@H]1CC[C@H](O)C1 [Compound 201] | ≥ 8.00 | ≥ 8.00 |
| CCc1nc2c(N)ncc(-c3ccc(N4CCN(C)CC4)c(OC)c3)c2nc1NC1CCOCC1 [Compound 37] | ≥ 8.00 | 7.00 to 8.00 |
| CCc1nc2c(N)ncc(-c3cnn(C4CCN(C)CC4)c3)c2nc1N[C@@H]1CC[C@H](O)C1 [Compound 215] | ≥ 8.00 | ≥ 8.00 |
| CCc1nc2c(N)ncc(-c3cnn(C4CCN(C(C)C)CC4)c3)c2nc1NC1CCOCC1 [Compound 234] | ≥ 8.00 | ≥ 8.00 |
| CCc1nc2c(N)ncc(-c3cnn(C4CCN(C(=O)NC(C)C)CC4)c3)c2nc1N[C@@H]1CC[C@H](O)C1 [Compound 189] | ≥ 8.00 | ≥ 8.00 |
| CCc1nc2c(N)ncc(-c3cccc(OC)c3)c2nc1NC1CCOCC1 [Compound 3] | 7.00 to 8.00 | < 6.30 |

| Structure (SMILES) | pIC50 (FLT3) | pIC50 (MV4;11 cells) |
| --- | --- | --- |
| CCc1nc2c(N)nccc2nc1NC1CCOCC1 [Compound 1] | < 6.30 | < 6.30 |
| CCc1nc2c(N)ncc(-c3ccc(N4CCC(N5CCN(C)CC5)CC4)c(OC)c3)c2nc1NC1CCCOC1 (stereo not shown) [Compound 83] | ≥ 8.00 | 7.00 to 8.00 |
| CCc1nc2c(N)ncc(-c3cnn(C4CCN(CC5CCN(C)CC5)CC4)c3)c2nc1NC1CCOCC1 [Compound 158] | ≥ 8.00 | 7.00 to 8.00 |
| CCc1nc2c(N)ncc(-c3cnn(C4CCN(CC(F)(F)F)CC4)c3)c2nc1N[C@@H]1CC[C@H](O)C1 [Compound 219] | ≥ 8.00 | ≥ 8.00 |
| CCc1nc2c(N)ncc(-c3ccc(NCCNC(=O)[C@H](C)N(C)C(=O)/C=C/CN(C)C)c(OC)c3)c2nc1NC1CCOCC1 [Compound 358, (S,E)-N-(1-((2-((4-(5-amino-3-ethyl-2-((tetrahydro-2H-pyran-4-yl)amino)pyridino[3,4b]pyrazine-8-yl)-2-methoxyphenyl)amino)ethyl)amino)-1-oxopropane-2-yl)-4-(dimethylamino)-N-methylbutyl-2-enamide] | 7.00 to 8.00 | 6.30 to 7.00 |
| CCc1nc2c(N)ncc(-c3cnn(-c4ccn(C)c(=O)c4)c3)c2nc1N[C@@H]1CC[C@H](O)C1 [Compound 296] | ≥ 8.00 | ≥ 8.00 |
| CCc1nc2c(N)ncc(-c3cnn(C4CC4)c3)c2nc1N[C@@H]1CC[C@H](O)C1 [Compound 202] | ≥ 8.00 | ≥ 8.00 |
| CCc1nc2c(N)ncc(-c3cnn(-c4ccccc4)c3)c2nc1N[C@@H]1CC[C@H](O)C1 [Compound 176] | ≥ 8.00 | 7.00 to 8.00 |
| CCc1nc2c(N)ncc(-c3ccc(-c4ccnc(C)n4)c(OC)c3)c2nc1N[C@@H]1CC[C@H](O)C1 [Compound 288, (1S,3R)-3-((5-amino-3-ethyl-8-(3-methoxy-4-(2-methylpyrimidine-4-yl)phenyl)pyrido[3,4-b]pyrazine-2-yl)amino)cyclopentan-1-ol] | ≥ 8.00 | 7.00 to 8.00 |
| CCc1nc2c(N)ncc(-c3cnn(-c4ccc(C(F)F)nc4)c3)c2nc1N[C@@H]1CC[C@H](O)C1 [Compound 340] | ≥ 8.00 | 7.00 to 8.00 |
| CCc1nc2c(N)ncc(-c3cnn(C4CCN(C5CCN(CC(C)C)CC5)CC4)c3)c2nc1NC1CCOCC1 [Compound 241] | ≥ 8.00 | 7.00 to 8.00 |
| CCc1nc2c(N)ncc(-c3cn[nH]c3)c2nc1N[C@@H]1CC[C@H](O)C1 [Compound 203] | ≥ 8.00 | 7.00 to 8.00 |
| CCc1nc2c(N)ncc(-c3cnn(C4CCN(C5CCCCC5)CC4)c3)c2nc1N[C@@H]1CC[C@H](O)C1 [Compound 214] | ≥ 8.00 | ≥ 8.00 |
| CCc1nc2c(N)ncc(-c3cnn(-c4cc(C)nc(C)n4)c3)c2nc1N[C@@H]1CC[C@H](O)C1 [Compound 270] | ≥ 8.00 | 7.00 to 8.00 |
| CCc1nc2c(N)ncc(-c3cnn(C4CCN(C5CCCC5)CC4)c3)c2nc1N[C@@H]1CC[C@H](O)C1 [Compound 213] | ≥ 8.00 | ≥ 8.00 |
| CCc1nc2c(N)ncc(-c3cnn(C4CCC(F)(F)CC4)c3)c2nc1N[C@@H]1CC[C@H](O)C1 [Compound 193] | ≥ 8.00 | ≥ 8.00 |
| CCc1nc2c(N)ncc(-c3ccc(N4CC5CCC(C4)N5C)c(OC)c3)c2nc1N[C@@H]1CC[C@H](O)C1 [Compound 286, (1S, 3R)-3-((5-amino-3-ethyl-8-(3-methoxy-4-(8-methyl-3,8-diazabicyclo[3.2.1]octyl-3-yl)phenyl)pyridino[3,4-b]pyrazine-2-yl)amino)cyclopentan-1-ol] | ≥ 8.00 | ≥ 8.00 |
| CCc1nc2c(N)ncc(-c3ccc(N4CCC(N5CCN(C)CC5)CC4)c(OC)c3)c2nc1N[C@@H]1CC[C@@H](O)C1 [Compound 70] | ≥ 8.00 | ≥ 8.00 |
| CCc1nc2c(N)ncc(-c3cnn(CC4COC4)c3)c2nc1N[C@@H]1CC[C@H](O)C1 [Compound 200] | ≥ 8.00 | ≥ 8.00 |
